Literature values, collected in patent US20250319024A1, “TARGETED NANOPARTICLES AND THEIR USES RELATED TO INFECTIOUS DISEASE” (priority 2021, published 2025).
Like-named read-outs stand apart in the source and are kept apart here.

Test system: RIF sensitive strains / resistant strains
Conditions: cited from earlier work

## CO[C@H]1/C=C/O[C@@]2(C)Oc3c(C)c(O)c4c(O)c(c(/C=N/N5CCN(C)CC5)c(O)c4c3C2=O)NC(=O)/C(C)=C\C=C\[C@H](C)[C@H](O)[C@@H](C)[C@@H](O)[C@@H](C)[C@H](OC(C)=O)[C@@H]1C [free RIF, rifampin]
RIF sensitive strains
  ED95: below 0.5 μg/mL
Resistant strains
  ED95: above 2 μg/mL
